Measured values published in the supplement of paper PMC10307832.

Columns and labels:
Assay in all cases: relative viability (nuclei count vs DMSO), 5 days (fraction); higher = more cells survive
Motesanib + Decitabine = compound: CC1(C)CNc2cc(NC(=O)c3cccnc3NCc3ccncc3)ccc21 [Motesanib] + Nc1ncn([C@H]2C[C@H](O)[C@@H](CO)O2)c(=O)n1 [Decitabine] (partner 2 µM)
How it was run: (§1)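 Cells from lung cancer lines were seeded into 1536-well plates and, one day later, dosed by pin tool. Treatments were either a single drug or a fixed dose of an anchor drug with five library-drug doses (not always all listed) in √10 steps. After 5 days, nuclei were stained in a one-step fixation (final 0.05% Triton X-100, 1% formaldehyde, 1 ug/ml Hoechst) and counted on 4× images, and relative viability is the treated-to-vehicle nuclei ratio, as the median of duplicate plates.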

[1] = compound: C[C@@]1(C(=O)Nc2ccc(F)nc2)CCCN1c1nc(Nc2cc(C3CC3)n[nH]2)c2cccn2n1 + COc1cccc2cc(-c3nc([C@H]4CC[C@H](C(=O)O)CC4)n4ncnc(N)c34)[nH]c12 [OSI-027] (partner 0.5 µM)
How it was run: as §1

Motesanib + OSI-027 = compound: CC1(C)CNc2cc(NC(=O)c3cccnc3NCc3ccncc3)ccc21 [Motesanib] + COc1cccc2cc(-c3nc([C@H]4CC[C@H](C(=O)O)CC4)n4ncnc(N)c34)[nH]c12 [OSI-027] (partner 0.5 µM)
How it was run: as §1

Motesanib + Crizotinib = compound: CC1(C)CNc2cc(NC(=O)c3cccnc3NCc3ccncc3)ccc21 [Motesanib] + C[C@@H](Oc1cc(-c2cnn(C3CCNCC3)c2)cnc1N)c1c(Cl)ccc(F)c1Cl [Crizotinib] (partner 1 µM)
How it was run: as §1

Cell Line	relative viability (Motesanib + Decitabine; first compound 0.01 µM)	relative viability (Motesanib + Decitabine; first compound 0.03162 µM)	relative viability (Motesanib + Decitabine; first compound 0.1 µM)	relative viability (Motesanib + Decitabine; first compound 0.3162 µM)	relative viability (Motesanib + Decitabine; first compound 1 µM)	relative viability ([1]; first compound 0.04 µM)	relative viability ([1]; first compound 0.1265 µM)	relative viability ([1]; first compound 0.4 µM)	relative viability ([1]; first compound 1.265 µM)	relative viability (Motesanib + OSI-027; first compound 0.03162 µM)	relative viability (Motesanib + OSI-027; first compound 0.1 µM)	relative viability (Motesanib + OSI-027; first compound 0.3162 µM)	relative viability (Motesanib + OSI-027; first compound 1 µM)	relative viability (Motesanib + Crizotinib; first compound 0.01 µM)	relative viability (Motesanib + Crizotinib; first compound 0.03162 µM)	relative viability (Motesanib + Crizotinib; first compound 0.1 µM)	relative viability (Motesanib + Crizotinib; first compound 0.3162 µM)	relative viability (Motesanib + Crizotinib; first compound 1 µM)	relative viability (Motesanib + OSI-027; first compound 0.01 µM)
NCI-H2405	0.77	0.773	0.719	0.833	0.78	0.401	0.294	0.269	0.272	0.59	0.683	0.663	0.719	0.8	0.847	0.875	0.864	0.905	
LCLC-97TM1	0.251	0.26	0.285	0.261	0.295	0.284	0.111	0.122	0.112	0.56	0.465	0.58	0.537	0.362	0.429	0.373	0.469	0.486	0.519
NCI-H596	1.1	1.08	1.12	1.15	1.16	0.63	0.557	0.555	0.793	0.772	0.732	0.6	0.75	0.937	0.884	0.958	1.12	1.05	0.913
NCI-H727	0.861	0.927	0.929	0.804	0.937	0.373	0.273	0.383	0.351	0.767	0.833	0.555	0.425	0.96	0.839	0.786	0.808	0.723	0.539
H3255	0.561	0.651	0.605	0.623	0.678	0.523	0.555	0.397	0.447	0.601	0.603	0.558	0.635	0.793	0.883	0.986	0.838	0.863	0.608
SK-MES-1	0.358	0.383	0.59	0.561	0.695	0.615	0.317	0.357	0.286	0.59	0.661	0.648	0.564	0.983	0.986	1.01	1.05	0.977	0.611
NCI-H1437	0.596	0.544	0.58	0.548	0.629	0.703	0.272	0.208	0.205	0.899	0.903	0.803	0.856	0.888	0.996	0.963	0.95	1.05	0.872
LU99A	0.752	0.916	0.876	0.847	1.01	0.251	0.233	0.223	0.186	0.261	0.301	0.307	0.322	0.518	0.477	0.493	0.549	0.574	0.287
HCC-827	0.332	0.421	0.406	0.344	0.309	0.393	0.782	0.707	0.724	0.809	0.749	0.761	0.755	0.99	0.985	0.998	0.955	0.93	0.669
LK-2	0.251	0.398	0.28	0.285	0.374		0.163	0.153	0.178	0.195	0.168	0.218	0.256	0.232	0.234	0.231	0.249	0.217	0.225
HCC-366	0.381	0.439	0.416	0.397	0.635	0.861	0.585	0.462	0.437	0.959	0.863	0.881	1.03	0.575	0.487	0.605	0.556	0.596	0.964
BEN	0.599	0.788	0.779	0.693	0.867	0.263	0.18	0.236	0.271	0.277	0.272	0.291	0.31	0.792	0.85	0.803	0.928	0.978	0.281
NCI-H23	0.31	0.382	0.436	0.52	0.523	0.397	0.232	0.225	0.266	0.593	0.609	0.675	0.614	0.484	0.373		0.497	0.612	0.602
201T	0.84	0.864	0.925	0.939	0.93	0.519	0.356	0.35	0.306	0.726	0.779	0.506	0.69	1.02	1.07	1.04	1.04	1.06	0.683
NCI-H2170	0.485	0.509	0.575	0.576	0.604	0.721	0.525	0.592	0.564	0.687	0.748	0.718	0.775	1.16	1.19	1.15	1.13	1.18	0.686
NCI-H460	0.531	0.453	0.467	0.568	0.543	0.538	0.252	0.29	0.313	0.633	0.619	0.635	0.632	0.935	0.75	0.945	0.927	0.902	0.616
NCI-H661	0.486	0.528	0.556	0.631	0.625	0.592	0.564	0.249	0.529	0.741	0.848	0.749	0.576		0.945	1.09	0.978	1.1	0.73
